Results reported in the supplement of paper PMC10307832.

How the values were obtained:
Experiment in all cases: relative viability (nuclei count vs DMSO), 5 days (fraction); higher = more cells survive
ABC-1 = system: ABC-1
Outline: (§1)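 Each reported value is a median over duplicate plates. It expresses relative viability: treated-well nuclei count divided by vehicle-well nuclei count. Lung cancer cell lines in 1536-well plates were dosed by pin tool a day after seeding, alone with one drug or with a fixed anchor-drug dose plus five library-drug doses (not always all listed) in √10 steps, and nuclei were counted after 5 days.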

COR-L23 = system: COR-L23
Outline: as §1

H3255 = system: H3255
Outline: as §1

HCC-15 = system: HCC-15
Outline: as §1

HCC-366 = system: HCC-366
Outline: as §1

HCC-827 = system: HCC-827
Outline: as §1

LC-2-ad = system: LC-2-ad
Outline: as §1

LCLC-103H = system: LCLC-103H
Outline: as §1

LXF-289 = system: LXF-289
Outline: as §1

NCI-H1437 = system: NCI-H1437
Outline: as §1

NCI-H1666 = system: NCI-H1666
Outline: as §1

NCI-H1975 = system: NCI-H1975
Outline: as §1

NCI-H2009 = system: NCI-H2009
Outline: as §1

NCI-H2085 = system: NCI-H2085
Outline: as §1

NCI-H2087 = system: NCI-H2087
Outline: as §1

NCI-H2228 = system: NCI-H2228
Outline: as §1

NCI-H2342 = system: NCI-H2342
Outline: as §1

NCI-H23 = system: NCI-H23
Outline: as §1

NCI-H661 = system: NCI-H661
Outline: as §1

PC-14 = system: PC-14
Outline: as §1

PC-3 [JPC-3] = system: PC-3 [JPC-3]
Outline: as §1

SK-MES-1 = system: SK-MES-1
Outline: as §1

UMC-11 = system: UMC-11
Outline: as §1

Cc1csc(=NC2CCCCC2)n1/N=C/c1ccc(O)c(O)c1O [MIM1] + COc1cccc2cc(-c3nc([C@H]4CC[C@H](C(=O)O)CC4)n4ncnc(N)c34)[nH]c12 [OSI-027] (partner 0.5 µM)
relative viability (ABC-1; first compound 0.2 µM): 0.481 | relative viability (ABC-1; first compound 0.6325 µM): 0.46 | relative viability (ABC-1; first compound 2 µM): 0.388 | relative viability (ABC-1; first compound 6.325 µM): 0.236 | relative viability (ABC-1; first compound 20 µM): 0.298 | relative viability (COR-L23; first compound 0.2 µM): 0.843 | relative viability (COR-L23; first compound 0.6325 µM): 0.955 | relative viability (COR-L23; first compound 2 µM): 0.654 | relative viability (COR-L23; first compound 6.325 µM): 0.603 | relative viability (COR-L23; first compound 20 µM): 0.382 | relative viability (H3255; first compound 0.2 µM): 0.596 | relative viability (H3255; first compound 0.6325 µM): 0.575 | relative viability (H3255; first compound 2 µM): 0.572 | relative viability (H3255; first compound 6.325 µM): 0.519 | relative viability (H3255; first compound 20 µM): 0.313 | relative viability (HCC-15; first compound 0.2 µM): 0.747 | relative viability (HCC-15; first compound 2 µM): 0.778 | relative viability (HCC-15; first compound 6.325 µM): 0.469 | relative viability (HCC-15; first compound 20 µM): 0.102 | relative viability (HCC-366; first compound 0.2 µM): 0.852 | relative viability (HCC-366; first compound 2 µM): 0.677 | relative viability (HCC-366; first compound 6.325 µM): 0.186 | relative viability (HCC-366; first compound 20 µM): 0.0446 | relative viability (HCC-827; first compound 0.2 µM): 0.758 | relative viability (HCC-827; first compound 0.6325 µM): 0.775 | relative viability (HCC-827; first compound 2 µM): 0.695 | relative viability (HCC-827; first compound 6.325 µM): 0.529 | relative viability (HCC-827; first compound 20 µM): 0.187 | relative viability (LC-2-ad; first compound 0.2 µM): 0.909 | relative viability (LC-2-ad; first compound 0.6325 µM): 0.591 | relative viability (LC-2-ad; first compound 2 µM): 0.754 | relative viability (LC-2-ad; first compound 6.325 µM): 0.373 | relative viability (LC-2-ad; first compound 20 µM): 0.218 | relative viability (LCLC-103H; first compound 0.2 µM): 0.467 | relative viability (LCLC-103H; first compound 0.6325 µM): 0.422 | relative viability (LCLC-103H; first compound 2 µM): 0.468 | relative viability (LCLC-103H; first compound 6.325 µM): 0.435 | relative viability (LCLC-103H; first compound 20 µM): 0.304 | relative viability (LXF-289; first compound 0.2 µM): 0.782 | relative viability (LXF-289; first compound 0.6325 µM): 0.586 | relative viability (LXF-289; first compound 2 µM): 0.806 | relative viability (LXF-289; first compound 6.325 µM): 0.686 | relative viability (LXF-289; first compound 20 µM): 0.441 | relative viability (NCI-H1437; first compound 0.2 µM): 0.935 | relative viability (NCI-H1437; first compound 0.6325 µM): 0.854 | relative viability (NCI-H1437; first compound 2 µM): 0.952 | relative viability (NCI-H1437; first compound 6.325 µM): 0.599 | relative viability (NCI-H1437; first compound 20 µM): 0.186 | relative viability (NCI-H1666; first compound 0.2 µM): 0.957 | relative viability (NCI-H1666; first compound 0.6325 µM): 0.9 | relative viability (NCI-H1666; first compound 2 µM): 0.804 | relative viability (NCI-H1666; first compound 6.325 µM): 0.639 | relative viability (NCI-H1666; first compound 20 µM): 0.459 | relative viability (NCI-H1975; first compound 0.2 µM): 0.704 | relative viability (NCI-H1975; first compound 0.6325 µM): 0.734 | relative viability (NCI-H1975; first compound 2 µM): 0.584 | relative viability (NCI-H1975; first compound 6.325 µM): 0.36 | relative viability (NCI-H1975; first compound 20 µM): 0.336 | relative viability (NCI-H2009; first compound 0.2 µM): 0.697 | relative viability (NCI-H2009; first compound 0.6325 µM): 0.685 | relative viability (NCI-H2009; first compound 2 µM): 0.684 | relative viability (NCI-H2009; first compound 6.325 µM): 0.424 | relative viability (NCI-H2009; first compound 20 µM): 0.142 | relative viability (NCI-H2085; first compound 0.2 µM): 0.676 | relative viability (NCI-H2085; first compound 0.6325 µM): 0.808 | relative viability (NCI-H2085; first compound 2 µM): 0.712 | relative viability (NCI-H2085; first compound 6.325 µM): 0.565 | relative viability (NCI-H2085; first compound 20 µM): 0.446 | relative viability (NCI-H2087; first compound 0.2 µM): 0.688 | relative viability (NCI-H2087; first compound 0.6325 µM): 0.511 | relative viability (NCI-H2087; first compound 2 µM): 0.696 | relative viability (NCI-H2087; first compound 6.325 µM): 0.547 | relative viability (NCI-H2087; first compound 20 µM): 0.34 | relative viability (NCI-H2228; first compound 0.2 µM): 0.773 | relative viability (NCI-H2228; first compound 0.6325 µM): 0.502 | relative viability (NCI-H2228; first compound 2 µM): 0.653 | relative viability (NCI-H2228; first compound 6.325 µM): 0.217 | relative viability (NCI-H2228; first compound 20 µM): 0.137 | relative viability (NCI-H2342; first compound 0.2 µM): 0.675 | relative viability (NCI-H2342; first compound 0.6325 µM): 0.59 | relative viability (NCI-H2342; first compound 2 µM): 0.663 | relative viability (NCI-H2342; first compound 6.325 µM): 0.633 | relative viability (NCI-H2342; first compound 20 µM): 0.728 | relative viability (NCI-H23; first compound 0.2 µM): 0.53 | relative viability (NCI-H23; first compound 2 µM): 0.563 | relative viability (NCI-H23; first compound 6.325 µM): 0.306 | relative viability (NCI-H23; first compound 20 µM): 0.156 | relative viability (NCI-H661; first compound 0.2 µM): 0.756 | relative viability (NCI-H661; first compound 0.6325 µM): 0.684 | relative viability (NCI-H661; first compound 2 µM): 0.636 | relative viability (NCI-H661; first compound 6.325 µM): 0.534 | relative viability (NCI-H661; first compound 20 µM): 0.31 | relative viability (PC-14; first compound 0.2 µM): 0.785 | relative viability (PC-14; first compound 0.6325 µM): 0.846 | relative viability (PC-14; first compound 2 µM): 0.499 | relative viability (PC-14; first compound 6.325 µM): 0.656 | relative viability (PC-14; first compound 20 µM): 0.0965 | relative viability (PC-3 [JPC-3]; first compound 0.2 µM): 0.749 | relative viability (PC-3 [JPC-3]; first compound 0.6325 µM): 0.733 | relative viability (PC-3 [JPC-3]; first compound 2 µM): 0.647 | relative viability (PC-3 [JPC-3]; first compound 6.325 µM): 0.657 | relative viability (PC-3 [JPC-3]; first compound 20 µM): 0.545 | relative viability (SK-MES-1; first compound 0.2 µM): 0.656 | relative viability (SK-MES-1; first compound 0.6325 µM): 0.643 | relative viability (SK-MES-1; first compound 2 µM): 0.591 | relative viability (SK-MES-1; first compound 6.325 µM): 0.439 | relative viability (SK-MES-1; first compound 20 µM): 0.15 | relative viability (UMC-11; first compound 0.2 µM): 0.504 | relative viability (UMC-11; first compound 2 µM): 0.579 | relative viability (UMC-11; first compound 6.325 µM): 0.397 | relative viability (UMC-11; first compound 20 µM): 0.264
